Experimental data published in patent US20110166142A1, “2-SUBSTITUTED ISOFLAVONOID COMPOUNDS, MEDICAMENTS AND USES” (priority 2007, published 2011).
Read-outs that look alike come from different tables or passages of the source.

How the values were obtained:
[1] = system: RAW 264.7 macrophage; assay: Toxicity to normal cells: RAW 264.7 macrophage (MTT); type: cell-based; conditions: Mus musculus, RAW264.7, 24 hours, single assay, maximum concentration 150 μM
Description: (§1) In a single assay, RAW 264.7 cells were seeded in 96-well plates at an appropriate cell density as determined from growth kinetics analysis and cultured for 24 hours in the absence and presence of the test compounds. Test compounds were added in serial two-fold dilutions from 150 μM in triplicate.
(§2) Cell proliferation was assessed after the addition of 20 μl of 3-4,5 dimethylthiazol-2,5-diphenyl tetrazolium bromide (MTT, 5 mg/ml in PBS, Sigma) for 3 hrs at 37° C. according to manufacturer's instructions, by comparing mean absorbance values of test compounds with that of the control.

[2] = system: various cell lines representative of different cancer indications; assay: Anti-cancer activity, summary over several cell lines; type: cell-based
Description: (§3) IC50 values were determined for each cell line. Cells were seeded in 96-well plates at an appropriate cell density as determined from growth kinetics analysis and cultured for 5 days in the absence and presence of the test compounds. Cell proliferation was assessed after the addition of 20 μl of 3-4,5 dimethylthiazol-2,5-diphenyl tetrazolium bromide (MTT, 2.5 mg/ml in PBS, Sigma) for 3-4 hrs at 37° C. according to manufacturer's instructions. IC50 values were calculated from semi-log plots of % of control proliferation on the y-axis against log dose on the x-axis.

[3] = system: MM200; assay: Anti-cancer activity, melanoma MM200 (MTT); type: cell-based; conditions: 120 h, 5 days, Geometric Mean ± SD (Log-normal Distribution)
[4] = system: PC-3; assay: Anti-cancer activity, prostate PC-3 (MTT); type: cell-based; conditions: Homo sapiens, PC-3, 120 h, 5 days, Geometric Mean ± SD (Log-normal Distribution)
Description: (§4) The colon adeno-carcinoma cell line HT-29 (HTB-38™) and prostate adenocarcinoma cell line PC-3 (CRL-435™) were cultured in RPMI 1640 medium (Gibco, Cat#21870-076).
(§5) All cultures were supplemented with 10% FBS (Gibco, Cat#10099-158), 5000 U/ml penicillin and 5 mg/ml streptomycin (Gibco, Cat#15070), and cultured at 37° C. in a humidified atmosphere of 5% CO2.
as §3

[5] = system: HPAC; assay: Anti-cancer activity, pancreatic HPAC (MTT); type: cell-based; conditions: Homo sapiens, 120 h, 5 days, Geometric Mean ± SD (Log-normal Distribution)
Description: The human pancreatic cancer cell line, HPAC (CRL-2119) was routinely cultured in DMEM/Hams F-12 1:1 (Gibco) and supplemented with 15 mM HEPES, 0.002 mg/ml insulin (Sigma, Cat#I9278), 0.005 mg/ml transferrin (Sigma, Cat#T8158), 40 ng/ml hydrocortisone (Sigma, Cat#H0135) and 10 ng/ml epidermal growth factor (Sigma, Cat#E4269).
as §5, §3

[6] = system: panel of normal, non-transformed cells; assay: Toxicity to normal cells, overall statement (NFF and RAW 264.7); type: cell-based; conditions: maximum concentration examined 150 μM
Description: (§6) Neonatal foreskin fibroblasts (NFF), a gift from Dr. Peter Parsons (Queensland Institute of Medical Research) were cultured in RPMI supplemented with 10% FBS (Gibco, Australia), penicillin (100 U/ml), streptomycin ([…]), L-glutamine (2 mM) and sodium bicarbonate (1.2 g/L), and cultured at 37° C. in a humidified atmosphere of 5% CO2 for 5 days. Test compounds were added in serial two-fold dilutions from 150 μM in triplicate. These assays were run twice.
as §1, §2

[7] = system: Neonatal foreskin fibroblasts (NFF); assay: Toxicity to normal cells: neonatal foreskin fibroblasts (MTT); type: cell-based; conditions: Homo sapiens, Fibroblast, 120 h, 5 days, mean ± SD, maximum concentration 150 μM
Description: as §6, §2

[8] = system: MDA-MB-468; assay: Anti-cancer activity, breast MDA-MB-468 (MTT); type: cell-based; conditions: Homo sapiens, MDA-MB-468, 120 h, 5 days, Geometric Mean ± SD (Log-normal Distribution)
[9] = system: HT-29; assay: Anti-cancer activity, colorectal HT-29 (MTT); type: cell-based; conditions: Homo sapiens, HT-29, 120 h, 5 days, Geometric Mean ± SD (Log-normal Distribution)
Description: as §4, §5, §3

[10] = Free radical scavenging (DPPH); conditions: for EC50: 0.1 mM DPPH in ethanol, 20 minutes, absorbance 517 nm, concentration causing 0.6 change in absorbance, read-out: Free radical scavenging ability EC50; for free radical scavenging activity: DPPH
Description: The antioxidant (free radical trapping) activity of test compounds was assessed using the stable free radical compound 2,2-diphenyl-1-picrylhydrazyl (DPPH). A stock solution of DPPH was prepared at a concentration of 0.1 mM in ethanol and mixed for 10 minutes prior to use. Test compounds at a concentration of 100 μM were reacted with DPPH for 20 minutes, after which time the absorbance at 517 nm was determined and the change in absorbance compared to a reagent blank (DPPH with ethanol alone). A dose response curve was produced for those compounds with free radical scavenging activity (ΔAbs>0.3) at 100 μM. The IC50 value was estimated as the concentration of test compound that caused a 0.6 change in absorbance (with 1.2 absorbance units representing total scavenging of the DPPH radical).

[11] = system: CP70; assay: Anti-cancer activity, ovarian CP70 (MTT); type: cell-based; conditions: 5 days, Geometric Mean ± SD (Log-normal Distribution)
Description: The ovarian cancer cell line, CP70 was obtained as a gift from Dr. Gil Mor (Yale University) and routinely cultured in DMEM/Hams F-12 1:1 (Gibco, Cat#11320-082) supplemented with 10 mM HEPES (Sigma, Cat#H0887), 1× non essential amino acids (Sigma, Cat#M7145), 5.0 g/L sodium bicarbonate (Sigma, Cat#S5761), and 1 mM sodium pyruvate (Sigma, Cat#S8636).
as §5, §3

[12] = system: NCI-H460; assay: Anti-cancer activity, lung NCI-H460 (MTT); type: cell-based; conditions: Homo sapiens, NCI-H460, 120 h, 5 days, Geometric Mean ± SD (Log-normal Distribution)
Description: The large cell lung cancer cell line NCI-H460 was cultured in RPMI 1640 medium additionally supplemented with 4.5 g/L glucose (Sigma, Cat#G8769), 5.0 g/L sodium pyruvate, 5 g/L sodium bicarbonate and buffered with 10 mM HEPES.
as §5, §3

[13] = system: LPS-induced NO synthesis; assay: LPS-induced NO (nitrite) production in RAW 264.7 macrophages (Griess Reaction); type: cell-based, mouse; conditions: 10 μM; FIG. 3
Description: The mouse macrophage cell line RAW 264.7 was cultured in DMEM supplemented with foetal bovine serum (FBS), 2 mM glutamine and 50 U/ml penicillin/streptomycin (pen/strep). Cells were treated with either test compound (in 0.025% DMSO) or vehicle alone, and added one hour before 50 ng/ml LPS. After incubation for 24 hrs, culture media was collected for PGE2 or TXB2 measurement by ELISA (Cayman Chemical). The effect of test compounds at 10 μM on cell viability was examined using an MTT assay.
Nitrite concentration is a quantitative indicator of NO production (Wang et al. 2002) and was determined by the Griess Reaction (Coligan et al. 1994). Briefly, 100 μL of Griess reagent was added to 50 μL of each supernatant in duplicate in two separate assays, run as for the examination of PGE2 etc. The absorbance at 550 nm was measured, and nitrite concentrations were determined against a standard curve of sodium nitrite.

[14] = read-out: IC50 RAW 264.7 macrophage Unstimulated
[15] = read-out: IC50 RAW 264.7 macrophage with LPS
[16] = read-out: IC50 range against MDA-MB-468 and PC-3 cell lines

IC50 [2, 16] [µM]	EC50 [10] [µM]	SMILES	IC50 [1, 14] [µM]	IC50 [1, 15] [µM]	IC50 [3] [µM]	IC50 [4] [µM]	IC50 [5] [µM]	toxicity in the tests performed [6]	IC50 [7] [µM]	IC50 [8] [µM]	IC50 [12] [µM]	further results
2 to 29		CCC1Oc2cc(O)ccc2C=C1c1ccc(O)cc1 (stereo not drawn) [Compound 2]	15.2	90.6	70.9 ± 1	4.14 ± 1.04	56 ± 1.03	mild to moderate toxicity	97.8 ± 1	2.41 ± 1.26		
	20	CCSC1Oc2cc(O)ccc2C=C1c1ccc(O)cc1 (stereo not drawn) [Compound 18, 2-Ethylthio-4′,7-dihydroxy-isoflav-3-ene]										
	24.1	CCOC1Oc2cc(O)ccc2C=C1c1ccc(O)cc1 (stereo not drawn) [Compound 14, 2-Ethoxy-4′,7-dihydroxy-isoflav-3-ene]										
2 to 29		CCC1Oc2cc(O)ccc2CC1c1ccc(O)cc1 (stereo not drawn) [Compound 4]	28.3	> 150		16.6 ± 1.08	103 ± 1.16	mild to moderate toxicity	122.2 ± 1	7.23 ± 1.07		
	> 100	Oc1ccc([C@H]2COc3cc(O)ccc3C2)cc1 [Eq, equol, reference compound]										production of nitrite by macrophages stimulated by LPS [13]: did not inhibit; free radical scavenging activity [10]: not active

Second part, the molecule before the results:

SMILES	IC50 [2, 16] [µM]	EC50 [10] [µM]	IC50 [1, 14] [µM]	IC50 [1, 15] [µM]	IC50 [3] [µM]	IC50 [4] [µM]	IC50 [5] [µM]	toxicity in the tests performed [6]	IC50 [7] [µM]	IC50 [8] [µM]	IC50 [12] [µM]	further results
C=CCC1Oc2cc(O)ccc2C=C1c1ccc(O)cc1 (stereo not drawn) [Compound 1]		22.8	4.7	2.2	6.37 ± 1.39	3.96 ± 2.02	5.21 ± 1.88	markedly toxic	14.7 ± 3.05	3.25 ± 1.51	6.72 ± 1.05	IC50 [9]: 9.36 ± 2.88 µM; IC50 ([2]; read-out: IC50 range against all cell lines tested): 3 to 10 µM; IC50 ([11]; 120 h): 8.39 ± 2.8 µM
CC(=O)Oc1ccc(C2=Cc3ccc(OC(C)=O)cc3OC2C#N)cc1 (stereo not drawn) [Example 17, 4′,7-Diacetoxy-2-cyano-isoflav-3-ene]												melting point: 156 to 158 °C
Oc1ccc(C2=Cc3ccc(O)cc3OC2O)cc1 (stereo not drawn) [Compound 16, 2,4′,7-Trihydroxy-isoflav-3-ene]												melting point: > 325 °C
CC1Oc2cc(O)ccc2C=C1c1ccc(O)cc1 (stereo not drawn) [Compound 3]			9.3	102	69.4 ± 1.22	12 ± 1.22	59.3 ± 1.28	mild to moderate toxicity	140.3 ± 1.07	5.18 ± 1.09	12.6 ± 1.1	IC50 [9]: 110.1 ± 1.03 µM; IC50 ([2]; read-out: IC50 range against CP70, MDA-MB-468, NCI-H460 and PC-3 cell lines): 5 to 13 µM; IC50 ([11]; 120 h): 8.39 ± 1.13 µM
COC1Oc2cc(O)ccc2C=C1c1ccc(O)cc1 (stereo not drawn) [Compound 13, 4′,7-Dihydroxy-2-methoxy-isoflav-3-ene]		21.8										
Oc1ccc(C2=Cc3ccc(O)cc3OC2)cc1 [Compound 37-DHE, reference compound]		55.1										production of nitrite by macrophages stimulated by LPS [13]: did not inhibit; free radical scavenging activity [10]: only low activity
CC1Oc2cc(O)ccc2CC1c1ccc(O)cc1 (stereo not drawn) [Compound 8]			> 150	> 150		78.7 ± 1.26	≥ 150	no toxicity	> 150	66.3 ± 1.05		activity against the cell lines tested ([2]; HPAC, MDA-MB-468 and PC-3): little activity
CC(=O)Oc1ccc(C2=Cc3ccc(OC(C)=O)cc3OC2CNC(=O)OC(C)(C)C)cc1 (stereo not drawn) [Example 23, 4′,7-Diacetoxy-2-(N—(BOC)aminomethyl)-isoflav-3-ene]												melting point: 52 to 54 °C
CC1Oc2cc(O)ccc2C=C1c1cccc(O)c1 (stereo not drawn) [Compound 6]	14 to 32	49.6	> 150	140	137.8 ± 1.16	31.7 ± 1.05	74.6 ± 1.24	mild to moderate toxicity	138.6 ± 1.05	17 ± 1	114.8 ± 1	IC50 [9]: ≥ 150 µM; IC50 ([11]; 120 h): 72.9 ± 1.07 µM
Cc1c(O)ccc2c1OC(C)C(c1ccc(O)cc1)=C2 (stereo not drawn) [Compound 5]	2 to 29	44.8	> 150	> 150		29 ± 1.05	84.4 ± 1.34	no toxicity	> 150	16.7 ± 1.18	41.1 ± 1	
Cc1cc(O)cc2c1C=C(c1ccc(O)cc1)C(C)O2 (stereo not drawn) [Compound 7]	14 to 32	38.4	98.8	115	102 ± 1.27	31.9 ± 1.47	60.5 ± 1.21	mild to moderate toxicity	126.6 ± 1.01	14.5 ± 1.07	51.5 ± 1.03	IC50 [9]: ≥ 150 µM; IC50 ([11]; 120 h): ~31 µM; IC50 [11]: 31.1 ± 1.06 µM
